Measurements from ChEMBL document CHEMBL5465560, “Selectivity Literature for EUbOPEN Chemogenomic Library” (2024).

Key:
[1] = target: Calcium/calmodulin-dependent protein kinase type 1 (Homo sapiens) (UniProt Q14012); conditions: at 10 µM
[2] = target: T1, Serine/threonine-protein kinase tousled-like 1 (Homo sapiens) (UniProt Q9UKI8); conditions: at 10 µM
T1 sequence (whole entry): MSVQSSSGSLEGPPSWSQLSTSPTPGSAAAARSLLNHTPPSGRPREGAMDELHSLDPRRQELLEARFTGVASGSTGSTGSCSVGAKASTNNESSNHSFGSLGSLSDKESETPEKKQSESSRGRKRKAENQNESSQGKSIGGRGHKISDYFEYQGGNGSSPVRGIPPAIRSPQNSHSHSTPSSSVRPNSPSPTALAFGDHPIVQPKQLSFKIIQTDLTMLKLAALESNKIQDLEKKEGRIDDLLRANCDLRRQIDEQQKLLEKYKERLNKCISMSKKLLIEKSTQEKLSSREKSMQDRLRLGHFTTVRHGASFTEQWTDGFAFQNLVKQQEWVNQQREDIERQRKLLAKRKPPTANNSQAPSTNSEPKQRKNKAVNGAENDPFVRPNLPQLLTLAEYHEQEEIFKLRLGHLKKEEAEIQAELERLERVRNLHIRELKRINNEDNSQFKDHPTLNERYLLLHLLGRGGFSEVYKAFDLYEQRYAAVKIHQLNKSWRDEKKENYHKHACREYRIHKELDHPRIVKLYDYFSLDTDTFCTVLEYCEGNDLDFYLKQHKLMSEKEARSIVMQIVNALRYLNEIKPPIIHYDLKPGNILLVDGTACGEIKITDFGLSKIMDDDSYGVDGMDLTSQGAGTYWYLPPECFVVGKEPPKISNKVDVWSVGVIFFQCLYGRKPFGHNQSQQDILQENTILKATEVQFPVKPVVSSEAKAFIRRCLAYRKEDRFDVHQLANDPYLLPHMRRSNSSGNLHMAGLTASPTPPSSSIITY

[3] = tested on: ALK tyrosine kinase receptor (Homo sapiens), Q9UM73 [C1156Y]; assay: (§1) Selectivity interaction (KinomeScan (DiscoverX)) EUB0000229b ALK; conditions: at 1 µM
[4] = tested on: ALK tyrosine kinase receptor (Homo sapiens), Q9UM73 [L1196M]; assay: as §1; conditions: at 1 µM
[5] = target: Ribosomal protein S6 kinase alpha-6 (Homo sapiens, UniProt Q9UK32); assay: Selectivity interaction (KinomeScan (DiscoverX)) EUB0000092b RPS6KA6; conditions: at 10 µM
[6] = target: ALK tyrosine kinase receptor (Homo sapiens, UniProt Q9UM73); assay: Selectivity interaction (Upstate Kinase Profiler service (Millipore)) EUB0000056c ALK; conditions: at 1 µM
[7] = target: Calcium/calmodulin-dependent protein kinase type II subunit delta (Homo sapiens) (UniProt Q13557); assay: Selectivity interaction (KinomeScan (DiscoverX)) EUB0000655a CAMK2D; conditions: at 10 µM
[8] = target: Serine/threonine-protein kinase SIK3 (Homo sapiens) (UniProt Q9Y2K2); assay: Selectivity interaction (KinomeScan (DiscoverX)) EUB0000655a SIK3; conditions: at 10 µM
[9] = target: RAC-gamma serine/threonine-protein kinase (Homo sapiens, UniProt Q9Y243); assay: Selectivity interaction (Kinase panel (DSF assay)) EUB0001559a AKT3
[10] = target: Cyclin-dependent kinase 5 (Homo sapiens, UniProt Q00535); assay: Selectivity interaction (KinomeScan (DiscoverX)) EUB0001079a CDK5; conditions: at 1 µM
[11] = target: Epidermal growth factor receptor (Homo sapiens, UniProt P00533); assay: Selectivity interaction (Rxn Biology Kinase assay) EUB0001632a EGFR; conditions: at 10 µM
[12] = target: Serine/threonine-protein kinase mTOR (Homo sapiens, UniProt P42345); assay: Selectivity interaction (Kinase panel (Z-LYTE Assay)) EUB0001632a MTOR; conditions: at 10 µM
[13] = target: Serine/threonine-protein kinase pim-2 (Homo sapiens, UniProt Q9P1W9)
[14] = target: Microtubule-associated serine/threonine-protein kinase 2 (Homo sapiens) (UniProt Q6P0Q8); assay: Selectivity interaction (ActivX KiNativ screen (kinase selectivity in THP-1 cell lysates)) EUB0000639a MAST2; type: subcellular; conditions: lysate
[15] = target: Casein kinase I isoform alpha (Homo sapiens, UniProt P48729); assay: Selectivity interaction (KinomeScan (DiscoverX)) EUB0000607a CSNK1A1; conditions: at 10 µM
[16] = target: Cyclin-dependent kinase 16 (Homo sapiens) (UniProt Q00536); assay: Selectivity interaction (KinomeScan (DiscoverX)) EUB0001049a CDK16; conditions: at 1 µM
[17] = target: Epithelial discoidin domain-containing receptor 1 (Homo sapiens) (UniProt Q08345); assay: Selectivity interaction (KinomeScan (DiscoverX)) EUB0001049a DDR1; conditions: at 1 µM
[18] = target: Tyrosine-protein kinase JAK1 (Homo sapiens, UniProt P23458); assay: Selectivity interaction (KinomeScan (DiscoverX)) EUB0000695a JAK1; conditions: at 100 nM
[19] = target: Serine/threonine-protein kinase PRP4 homolog (Homo sapiens) (UniProt Q13523); assay: Selectivity interaction (KinomeScan (DiscoverX)) EUB0000595a PRPF4B; conditions: at 10 µM
[20] = target: Homeodomain-interacting protein kinase 1 (Homo sapiens, UniProt Q86Z02); assay: Selectivity interaction (KinomeScan (DiscoverX)) EUB0000045b HIPK1
[21] = target: TRAF2 and NCK-interacting protein kinase (Homo sapiens) (UniProt Q9UKE5); assay: Selectivity interaction (KinomeScan (DiscoverX)) EUB0000045b TNIK
[22] = target: Sodium channel protein type 2 subunit alpha (Homo sapiens) (UniProt Q99250); assay: Selectivity interaction (Eurofins CEREP Diversity Profile (receptors and ion channels)) EUB0000279b SCN2A; conditions: at 10 µM
[23] = tested on: Tyrosine-protein kinase ABL1 (Homo sapiens), P00519 [E255K]; assay: (§2) Selectivity interaction (Ambit KINOMEscan and KiNATiv profiling in Jurkat cells) EUB0000090b ABL1; type: cell-based; conditions: at 1 µM
[24] = tested on: Tyrosine-protein kinase ABL1 (Homo sapiens), P00519 [F317I]; assay: as §2; type: cell-based; conditions: at 1 µM
[25] = tested on: Tyrosine-protein kinase ABL1 (Homo sapiens), P00519 [F317L]; assay: as §2; type: cell-based; conditions: at 1 µM
[26] = tested on: Tyrosine-protein kinase ABL1 (Homo sapiens), P00519 [H396P]; assay: as §2; type: cell-based; conditions: at 1 µM
[27] = tested on: Tyrosine-protein kinase ABL1 (Homo sapiens), P00519 [M351T]; assay: as §2; type: cell-based; conditions: at 1 µM
[28] = tested on: Tyrosine-protein kinase ABL1 (Homo sapiens), P00519 [Q252H]; assay: as §2; type: cell-based; conditions: at 1 µM
[29] = tested on: Tyrosine-protein kinase ABL1 (Homo sapiens), P00519 [T315I]; assay: as §2; type: cell-based; conditions: at 1 µM
[30] = tested on: Tyrosine-protein kinase ABL1 (Homo sapiens), P00519 [Y253F]; assay: as §2; type: cell-based; conditions: at 1 µM
[31] = target: Tyrosine-protein kinase ABL1 (Homo sapiens, UniProt P00519); assay: as §2; type: cell-based; conditions: at 1 µM

Sequence of Microtubule-associated serine/threonine-protein kinase 2 (Homo sapiens) (Q6P0Q8 whole entry, canonical isoform): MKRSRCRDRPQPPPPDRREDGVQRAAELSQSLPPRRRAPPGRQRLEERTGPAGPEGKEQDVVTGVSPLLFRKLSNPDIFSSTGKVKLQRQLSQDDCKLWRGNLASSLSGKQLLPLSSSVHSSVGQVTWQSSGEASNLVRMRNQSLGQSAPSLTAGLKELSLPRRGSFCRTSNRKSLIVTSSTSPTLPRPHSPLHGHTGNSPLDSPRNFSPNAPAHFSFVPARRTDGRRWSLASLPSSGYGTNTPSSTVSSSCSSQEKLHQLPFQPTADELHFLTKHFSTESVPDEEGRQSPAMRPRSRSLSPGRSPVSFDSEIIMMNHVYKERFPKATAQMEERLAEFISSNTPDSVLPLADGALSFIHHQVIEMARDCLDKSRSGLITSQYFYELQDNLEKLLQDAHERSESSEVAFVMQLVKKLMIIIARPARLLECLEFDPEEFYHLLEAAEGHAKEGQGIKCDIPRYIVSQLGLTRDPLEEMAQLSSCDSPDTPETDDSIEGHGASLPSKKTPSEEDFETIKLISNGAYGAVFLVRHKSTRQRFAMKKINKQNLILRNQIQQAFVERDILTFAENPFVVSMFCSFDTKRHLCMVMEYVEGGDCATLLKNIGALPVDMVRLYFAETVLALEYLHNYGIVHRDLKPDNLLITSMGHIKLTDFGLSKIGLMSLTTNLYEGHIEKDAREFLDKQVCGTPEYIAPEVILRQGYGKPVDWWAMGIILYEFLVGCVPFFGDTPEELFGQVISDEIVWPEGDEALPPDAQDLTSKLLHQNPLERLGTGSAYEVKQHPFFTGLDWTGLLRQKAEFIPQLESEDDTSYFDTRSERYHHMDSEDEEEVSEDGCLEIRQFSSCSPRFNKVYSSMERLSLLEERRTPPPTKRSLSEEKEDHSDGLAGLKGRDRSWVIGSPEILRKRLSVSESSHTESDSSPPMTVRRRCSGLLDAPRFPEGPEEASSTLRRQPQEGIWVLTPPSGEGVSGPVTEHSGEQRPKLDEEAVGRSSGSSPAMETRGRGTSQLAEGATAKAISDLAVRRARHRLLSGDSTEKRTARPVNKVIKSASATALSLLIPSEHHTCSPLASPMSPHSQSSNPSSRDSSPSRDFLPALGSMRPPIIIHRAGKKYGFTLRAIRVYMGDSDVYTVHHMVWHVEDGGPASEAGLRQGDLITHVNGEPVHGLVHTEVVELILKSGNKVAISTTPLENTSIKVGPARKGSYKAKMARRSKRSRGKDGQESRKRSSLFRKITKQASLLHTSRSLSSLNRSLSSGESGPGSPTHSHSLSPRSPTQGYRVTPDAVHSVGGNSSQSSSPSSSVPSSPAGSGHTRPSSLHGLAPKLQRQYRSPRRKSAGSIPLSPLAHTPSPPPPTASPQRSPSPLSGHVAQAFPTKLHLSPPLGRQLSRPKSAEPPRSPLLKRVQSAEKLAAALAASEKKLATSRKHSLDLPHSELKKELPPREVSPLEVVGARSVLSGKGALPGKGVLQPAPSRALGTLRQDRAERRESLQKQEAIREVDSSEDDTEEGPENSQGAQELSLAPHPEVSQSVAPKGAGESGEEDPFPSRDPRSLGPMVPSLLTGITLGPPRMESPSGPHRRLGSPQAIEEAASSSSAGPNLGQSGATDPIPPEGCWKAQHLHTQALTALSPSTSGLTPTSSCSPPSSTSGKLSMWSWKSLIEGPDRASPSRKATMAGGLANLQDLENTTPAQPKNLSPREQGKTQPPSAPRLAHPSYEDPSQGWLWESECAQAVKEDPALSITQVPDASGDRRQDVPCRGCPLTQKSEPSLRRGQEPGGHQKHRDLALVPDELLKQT
Sequence of Homeodomain-interacting protein kinase 1 (Q86Z02 whole entry, looked up): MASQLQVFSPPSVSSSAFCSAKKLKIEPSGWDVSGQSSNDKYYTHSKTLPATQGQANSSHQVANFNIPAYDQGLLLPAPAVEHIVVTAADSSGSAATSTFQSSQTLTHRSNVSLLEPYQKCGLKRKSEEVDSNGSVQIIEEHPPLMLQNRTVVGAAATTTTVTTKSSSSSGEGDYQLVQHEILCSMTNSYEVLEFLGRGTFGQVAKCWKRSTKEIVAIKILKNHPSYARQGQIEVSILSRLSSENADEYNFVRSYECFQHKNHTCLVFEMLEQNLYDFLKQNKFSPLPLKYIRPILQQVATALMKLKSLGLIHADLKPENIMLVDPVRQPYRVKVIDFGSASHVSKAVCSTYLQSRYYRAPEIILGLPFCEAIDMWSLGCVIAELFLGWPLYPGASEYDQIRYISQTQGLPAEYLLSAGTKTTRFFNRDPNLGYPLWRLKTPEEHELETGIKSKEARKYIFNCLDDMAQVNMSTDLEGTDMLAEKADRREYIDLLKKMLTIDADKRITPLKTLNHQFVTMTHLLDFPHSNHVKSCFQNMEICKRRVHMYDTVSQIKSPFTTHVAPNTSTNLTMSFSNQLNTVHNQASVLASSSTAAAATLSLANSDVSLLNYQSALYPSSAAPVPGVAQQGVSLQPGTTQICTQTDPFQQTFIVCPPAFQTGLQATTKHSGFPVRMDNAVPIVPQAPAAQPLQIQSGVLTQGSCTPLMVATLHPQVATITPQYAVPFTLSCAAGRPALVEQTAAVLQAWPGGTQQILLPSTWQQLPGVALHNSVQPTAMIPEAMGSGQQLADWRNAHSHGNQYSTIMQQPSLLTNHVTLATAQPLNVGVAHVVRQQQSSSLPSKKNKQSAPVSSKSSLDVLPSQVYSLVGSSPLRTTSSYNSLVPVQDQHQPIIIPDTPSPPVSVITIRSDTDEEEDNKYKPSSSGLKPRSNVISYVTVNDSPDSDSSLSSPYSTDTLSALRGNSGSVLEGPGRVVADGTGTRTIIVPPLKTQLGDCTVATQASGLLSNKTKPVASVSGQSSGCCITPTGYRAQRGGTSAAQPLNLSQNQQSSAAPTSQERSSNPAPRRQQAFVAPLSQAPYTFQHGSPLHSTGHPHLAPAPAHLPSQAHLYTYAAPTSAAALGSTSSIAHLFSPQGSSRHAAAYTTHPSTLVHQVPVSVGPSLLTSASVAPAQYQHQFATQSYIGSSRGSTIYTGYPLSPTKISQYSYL
Sequence of TRAF2 and NCK-interacting protein kinase (Homo sapiens) (Q9UKE5 whole entry, looked up): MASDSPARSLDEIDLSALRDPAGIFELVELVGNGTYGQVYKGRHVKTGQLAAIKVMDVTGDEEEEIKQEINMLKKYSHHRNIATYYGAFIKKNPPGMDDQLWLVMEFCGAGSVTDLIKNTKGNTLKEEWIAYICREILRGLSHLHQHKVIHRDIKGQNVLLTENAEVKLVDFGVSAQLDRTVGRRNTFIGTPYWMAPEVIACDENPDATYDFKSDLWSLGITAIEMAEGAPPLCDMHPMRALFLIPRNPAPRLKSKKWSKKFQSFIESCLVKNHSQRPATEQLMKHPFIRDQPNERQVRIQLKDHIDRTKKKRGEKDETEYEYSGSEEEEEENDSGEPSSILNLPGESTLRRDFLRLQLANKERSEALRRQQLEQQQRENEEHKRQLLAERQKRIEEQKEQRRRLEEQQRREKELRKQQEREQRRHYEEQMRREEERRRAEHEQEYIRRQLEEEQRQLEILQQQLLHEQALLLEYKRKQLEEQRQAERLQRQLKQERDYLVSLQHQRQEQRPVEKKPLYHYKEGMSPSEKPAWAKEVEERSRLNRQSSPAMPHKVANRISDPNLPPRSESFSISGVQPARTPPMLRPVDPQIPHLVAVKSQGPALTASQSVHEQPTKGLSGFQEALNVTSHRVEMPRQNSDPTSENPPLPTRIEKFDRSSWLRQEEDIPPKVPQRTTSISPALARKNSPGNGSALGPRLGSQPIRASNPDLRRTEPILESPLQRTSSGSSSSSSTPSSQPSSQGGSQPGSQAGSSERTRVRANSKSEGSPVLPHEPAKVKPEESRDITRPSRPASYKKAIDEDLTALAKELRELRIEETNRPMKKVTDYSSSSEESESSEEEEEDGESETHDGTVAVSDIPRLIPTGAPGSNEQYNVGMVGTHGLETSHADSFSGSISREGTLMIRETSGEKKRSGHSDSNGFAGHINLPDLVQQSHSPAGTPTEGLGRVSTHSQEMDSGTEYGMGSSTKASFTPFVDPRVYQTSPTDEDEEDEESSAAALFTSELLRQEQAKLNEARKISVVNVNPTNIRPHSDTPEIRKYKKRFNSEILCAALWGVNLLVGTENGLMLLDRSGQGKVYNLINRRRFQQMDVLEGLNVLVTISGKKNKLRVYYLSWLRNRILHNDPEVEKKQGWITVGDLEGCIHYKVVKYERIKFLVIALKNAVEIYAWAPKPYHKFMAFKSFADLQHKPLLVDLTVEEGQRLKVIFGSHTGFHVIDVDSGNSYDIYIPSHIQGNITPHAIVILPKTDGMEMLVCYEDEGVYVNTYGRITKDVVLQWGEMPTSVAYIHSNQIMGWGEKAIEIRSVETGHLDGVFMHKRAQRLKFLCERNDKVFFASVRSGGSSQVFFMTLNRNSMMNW
Sequence of Cyclin-dependent kinase 5 (Q00535 whole entry, looked up): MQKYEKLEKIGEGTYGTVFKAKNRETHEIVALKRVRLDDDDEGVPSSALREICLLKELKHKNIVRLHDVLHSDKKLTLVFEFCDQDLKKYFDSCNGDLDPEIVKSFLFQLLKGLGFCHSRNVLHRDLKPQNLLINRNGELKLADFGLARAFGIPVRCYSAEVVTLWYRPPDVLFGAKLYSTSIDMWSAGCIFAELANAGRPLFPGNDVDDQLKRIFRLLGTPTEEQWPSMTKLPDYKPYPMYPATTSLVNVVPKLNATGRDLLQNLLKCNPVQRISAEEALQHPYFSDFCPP
Sequence of Calcium/calmodulin-dependent protein kinase type 1 (Homo sapiens) (Q14012 whole entry, looked up): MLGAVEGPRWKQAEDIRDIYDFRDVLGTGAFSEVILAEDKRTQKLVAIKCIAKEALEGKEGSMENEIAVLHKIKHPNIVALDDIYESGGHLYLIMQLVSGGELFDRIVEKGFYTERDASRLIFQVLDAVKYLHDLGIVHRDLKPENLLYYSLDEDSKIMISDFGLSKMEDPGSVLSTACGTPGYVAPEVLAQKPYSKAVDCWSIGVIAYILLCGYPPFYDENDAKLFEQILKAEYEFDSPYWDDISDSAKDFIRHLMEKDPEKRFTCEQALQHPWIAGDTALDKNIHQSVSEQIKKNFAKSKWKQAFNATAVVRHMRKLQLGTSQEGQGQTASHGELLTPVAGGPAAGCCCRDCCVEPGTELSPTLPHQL

CCN(CC)CCCCNc1ncc2cc(-c3cc(OC)cc(OC)c3)c(NC(=O)NC(C)(C)C)nc2n1
% of control [1]: 100% | % of control [2]: 100%

COc1cc(N(C)c2ccnc3ccc(C(F)(F)F)cc23)cc(OC)c1OC
% binding [3]: 83% | % binding [4]: 89%

CCC(=O)N1CCN(c2ccc(-n3c(=O)ccc4cnc5ccc(-c6cnc7ccccc7c6)cc5c43)cc2C(F)(F)F)CC1
% of control [5]: 66%

Cc1ccc(-c2ccc3c(ccc4sc5c(c43)NC[C@@H](C)NC5=O)n2)cn1
% of inhibition [6]: 43%

CN(C)CCOc1ccc(-c2nc(-c3ccncc3)c(-c3ccc4c(c3)CC/C4=N\O)[nH]2)cc1
% of control [7]: 100% | % of control [8]: 100%

CN(C(=O)c1cnn2cccnc12)c1cc2c(cc1N1CCOCC1)C(=O)N(C[C@@H](F)C(C)(C)O)C2
dTM [9]: 0 K

Nc1cnc(N2CCc3cc(S(=O)(=O)Nc4c(F)cc(Cl)cc4F)cc(N4CCCC4=O)c32)nc1 [TP-020n]
% of control [10]: 100%

Cn1cc(-n2cnc3c(NCc4nc5cc(Cl)c(Cl)cc5[nH]4)nc(N4CCOCC4)nc32)cn1
% of inhibition [11]: 3.44% | % of control [12]: 7.22%

CCc1cccc(CC)c1NC(=O)c1nn(C)c2c1CCc1cnc(Nc3ccc(C(=O)NC4CCN(C)CC4)cc3OC(F)(F)F)nc1-2
IC50 [13]: > 10 µM

CC[C@@H]1[C@H](F)C(=O)N[C@@H]1COc1nccc2cc(C(N)=O)c(OC)cc12 [ZIMLOVISERTIB]
% of inhibition ([14]; at 0.01 µM): -0.4% | % of inhibition ([14]; at 0.04 µM): -2.4% | % of inhibition ([14]; at 0.2 µM): -2.5% | % of inhibition ([14]; at 1 µM): -1.4% | % of inhibition ([14]; at 5 µM): -30.3%

CNC(=O)Nc1ccc(-c2nc(N3CC4CCC(C3)O4)c3cnn(C4CCC5(CC4)OCCO5)c3n2)cc1
% of control [15]: 100%

COc1cc(Nc2nc(C)cc(-c3cnn4nc(OC)ccc34)n2)cc(C(F)(F)F)c1
% of control [16]: 74% | % of control [17]: 99%

Cc1cc(F)c(C(=O)Nc2cccc(-c3nncn3C(C)C)n2)cc1-n1cnc(C2CC2)c1
% of control [18]: 60%

COCC(=O)NC/C=C/c1ccc2ncnc(Nc3ccc(Oc4ccc(C)nc4)c(C)c3)c2c1 [CP-724714]
% of control [19]: 93%

C=CC(=O)Nc1cc(-n2c(=O)ccc3cnc4ccc(-c5ccc(NS(C)(=O)=O)cc5)cc4c32)ccc1C
% of control ([20]; at 1 µM): 100% | % of control ([20]; at 10 µM): 56% | % of control ([21]; at 1 µM): 96% | % of control ([21]; at 10 µM): 100%

CC(=O)c1cc(-c2ccccc2OCC2CC2)c2ncccn12
% of control [22]: 100%

CN(C)C/C=C/C(=O)Nc1ccc(C(=O)N2CCCC(Nc3ncc(Cl)c(-c4c[nH]c5ccccc45)n3)C2)cc1 (configuration not stated)
% of control [23]: 45% | % of control [24]: 100% | % of control [25]: 91% | % of control [26]: 95% | % of control [27]: 88% | % of control [28]: 58% | % of control [29]: 99% | % of control [30]: 92% | % of control [31]: 94%
